melting point: 145 °C
Compound: CC(=O)N1CCC[C@@H](Oc2cc(F)cc(NC(=O)Nc3cccnc3)c2)C1 [Example 1, (R)-1-[3-(1-Acetyl-piperidin-3-yloxy)-5-fluoro-phenyl]-3-pyridin-3-yl-urea]

— patent US7399866B2, “Compounds, compositions, and methods” (Cytokinetics, Inc., priority 2003, dated 2008)
